# In patent US20030186423A1, “Amidase from variovorax” (Degussa AG, priority 2001, published 2003):
# What was measured:
# Assay type in all cases: biochemical, Variovorax paradoxus
# D-amidase [1] = test: Enzyme test for amino acid amides and α-hydroxycarboxylic acid amides (HPLC or NH4+ determination); settings: for Rel. activity with respect to D and L: activity for the lower enantiomer set at 1; for Activity with respect to Tle-NH2 / Specific activity: substrate 40 mM; for Activity with respect to Tle-NH2: DL-Tle-NH2 = 1; for Specific activity: partly purified D-amidase after the 2nd chromatography step (0.56 U/mg), Pro-, Lac-, MHA-NH2 by NH4+ determination
# Experimental: For prolinamide, and the α-hydroxycarboxylic acid amides lactic acid amide (Lac-NH2) and 2-hydroxy-4-methylmercaptobutyric acid amid (MHA-NH2), the methionine-analogous α-hydroxycarboxylic acid amide, determination of the product with the previous HPLC analysis is not possible. For these substrates, the activity was determined with the aid of NH4^+ determination. […] All the substrates were employed in the enzyme test at 40 mM. In the 4th column, for further comparison the activity for the lower enantiomer has been set at 1 and a relative activity for the preferred enantiomer has been calculated therefrom.
# (§1) In the conversion of tert-leucinamide (gen. acid amides) by the D-amidase, the formation of ammonia or ammonium ions and tert-leucine (gen. acid) in equimolar amounts occurs. […] The change in concentration of the components participating can be measured in an enzyme test, which comprises incubation of the following test batch for 10-60 minutes at 30° C.
# (§2) The enzyme test was started by addition of the substrate and the reaction was stopped by heating at 95° C. for three minutes. The analysis of the reaction products was carried out for ammonium ions by enzymatic determination of ammonium by glutamate dehydrogenase (Bergmeyer, H.,U., and Beutler, H.-O. (1985) Ammonia. In: Methods of Enzymatic Analysis. VCH-Verlag, 3rd edition, vol. 8: 454-461, Weinheim) and for D- and L-tert-leucine by means of HPLC (Bruckner, H., Wittner R., and Godel H., (1991) Fully automated high-performance liquid chromatographic separation of DL-amino acids derivatized with o-phthaldialdehyde together with N-isopropyl-cysteine. Application to food samples. Anal. Biochem. 144(1): 204-206). Batches to which no substrate were added served as controls.
# (§3) The separation and quantitative determination of the enantiomers D- and L-tert-leucine were carried out by a “chiral derivatization” on the basis of o-phthaldialdehyde (OPA)/N-isobutyryl-L-cysteine or N-isobutyryl-D-cysteine (Brückner, H.; Wittner R. and Godel H. (1991), Fully automated high-performance liquid chromatographic separation of DL-amino acids derivatized with o-Phthaldialdehyde together with N-isopropyl-cysteine. Application to food samples. Anal. Biochem. 144, 204-206). The diastereomeric isoindole derivatives formed were separated on an RP-18 (reversed phase) column and detected by fluorescence. A two-buffer system of aqueous acetate buffer and an acetonitrile/water mixture was used as the mobile phase.
# D-amidase [2] = test: Enzyme test for acid amides, activity by determination of ammonium ions with glutamate dehydrogenase; settings: for Activity with respect to Tle-NH2: DL-Tle-NH2 = 1; for Relative act.: partly purified D-amidase after the 2nd chromatography step (0.51 U/mg)
# Experimental: The activity was measured by determination of the ammonium ions with glutamate dehydrogenase (Bergmeyer, H. U., and Beutler, H.-O. (1985), Ammonia. In: Methods of Enzymatic Analysis. VCH-Verlag, 3rd edition, vol. 8: 454-461, Weinheim). […] The substrates were employed in the enzyme test at 40 mM, except for succinic acid diamide and adipic acid diamide, each at 10 mM, and benzylamide at 20 mM. Since the activities were determined only at in each case one substrate concentration, relative activities are stated.
# as §1, §2
# The enzyme glutamate dehydrogenase (GluDH; E.C.1.4.1.3) converts 2-oxoglutarate into L-glutamate, ammonium ions being consumed and NADH being oxidized to NAD+(Bergmeyer, H.,U. and Beutler, H.-O. (1985), Ammonia. In: Methods of Enzymatic Analysis. VCH-Verlag, 3rd edition, vol. 8: 454-461, Weinheim). The amount of NADH consumed during the reaction is equivalent to the amount of ammonium ions. The change in the concentration of NADH is the measurement parameter and can be determined spectrophotometrically at a wavelength of 340 nm.
# The test components were pipetted into cells of plastic (1.5 ml semimicro disposable cells, Brand) and mixed and the extinction at 340 nm was determined after 5 min. 10 μl GluDH were then added, and after the reaction had gone to completion, as a rule after 30 min, the extinction was measured again.
# D-amidase [3] = test: Kinetic cleavage of racemic amino acid amides: enantioselectivity as a function of the conversion
# Experimental: To evaluate the suitability for kinetic cleavage of racemic DL-Tle-NH2, the enantioselectivity was determined as a function of the conversion.
# DL-Valin-, DL-leucin- and DL-phenylalaninamide were alos tested in this respect. For this, the enantioselectivity was determined as function of the conversion with partly purified enzyme from Variovorax paradoxus 19-3 after the 1st chromatography step.
# as §3
# [4] = conversion 4%, partly purified enzyme after the 1st chromatography step
# [5] = conversion 51%, partly purified enzyme after the 1st chromatography step
Molecule,Rel. activity with respect to D and L (D-amidase [1]),Activity with respect to Tle-NH2 (D-amidase [1]),Specific activity (D-amidase [1]) [U/mg],also measured
"NC(=O)[C@@H]1CCCN1 [D-Pro-NH2, prolinamide]",1,24,12,
NC(=O)[C@@H](N)Cc1ccc(O)cc1 [L-Tyr-NH2],,100,47,
NC(=O)[C@H](N)Cc1ccccc1 [D-Phe-NH2],4.6,890,500,
NC(=O)[C@@H](N)Cc1ccccc1 [L-Phe-NH2],1,190,110,
CCCCC(N)=O [Valeric acid amide],,,,Activity with respect to Tle-NH2 (D-amidase [2]; substrate 40 mM): 36; Relative act. (D-amidase [2]; substrate 40 mM): 16 U/mg
NC(=O)CCC(N)=O [Succinic acid diamide],,,,Activity with respect to Tle-NH2 (D-amidase [2]; substrate 10 mM): 2.1; Relative act. (D-amidase [2]; substrate 10 mM): 1.1 U/mg
CC(C)C(N)=O [Isobutyramide],,,,Activity with respect to Tle-NH2 (D-amidase [2]; substrate 40 mM): 33; Relative act. (D-amidase [2]; substrate 40 mM): 15 U/mg
NC(=O)[C@@H](N)Cc1c[nH]c2ccccc12 [L-Trp-NH2],1,62,34,
"NC(=O)[C@@H]1CCCN1 [L-Pro-NH2, prolinamide]",2.3,56,28,
NC(=O)CCCCC(N)=O [Adipic acid diamide],,,,Activity with respect to Tle-NH2 (D-amidase [2]; substrate 10 mM): 14; Relative act. (D-amidase [2]; substrate 10 mM): 7.0 U/mg
NC(=O)C(N)Cc1c[nH]c2ccccc12 (racemic) [DL-Trp-NH2],2.5,160,86,
"NC(=O)C(N)Cc1ccccc1 (racemic) [DL-Phe-NH2, DL-phenylalaninamide]",,,,"E value (D-amidase [3]; conversion 4%): 5.6; ee D-Val (D-amidase [3]; [4]): 68.8%; E value (D-amidase [3]; conversion 14%): 5.2; ee D-Val (D-amidase [3]; conversion 14%, partly purified enzyme after the 1st chromatography step): 65.1%; E value (D-amidase [3]; conversion 26%): 5.1; ee D-Val (D-amidase [3]; conversion 26%, partly purified enzyme after the 1st chromatography step): 61.5%; E value (D-amidase [3]; conversion 36%): 5.2; ee D-Val (D-amidase [3]; conversion 36%, partly purified enzyme after the 1st chromatography step): 58.3%; E value (D-amidase [3]; conversion 51%): 5.1; ee D-Val (D-amidase [3]; [5]): 50.9%; E value (average) (D-amidase [3]; racemic amide, calculated from Table 3): 5"
CCCC(N)=O [Butyramide],,,,Activity with respect to Tle-NH2 (D-amidase [2]; substrate 40 mM): 37; Relative act. (D-amidase [2]; substrate 40 mM): 17 U/mg
CC(=O)CC(N)=O [Acetoacetamide],,,,Activity with respect to Tle-NH2 (D-amidase [2]; substrate 40 mM): 130; Relative act. (D-amidase [2]; substrate 40 mM): 58 U/mg
CCC(N)=O [Propionamide],,,,Activity with respect to Tle-NH2 (D-amidase [2]; substrate 40 mM): 26; Relative act. (D-amidase [2]; substrate 40 mM): 12 U/mg
NC=O [Formamide],,,,Activity with respect to Tle-NH2 (D-amidase [2]; substrate 40 mM): 0.13; Relative act. (D-amidase [2]; substrate 40 mM): 0.061 U/mg
N[C@H](Cc1ccccc1)C(=O)O [D-Phe],,,,"enantioselectivity (D-amidase [3]; range from 40 to 50% conversion, partly purified enzyme after the 1st chromatography step): ~55%"
CC(N)=O [Acetamide],,,,Activity with respect to Tle-NH2 (D-amidase [2]; substrate 40 mM): 4.0; Relative act. (D-amidase [2]; substrate 40 mM): 2.1 U/mg
NC(=O)CC(N)=O [Malonic acid diamide],,,,Activity with respect to Tle-NH2 (D-amidase [2]; substrate 40 mM): 2.9; Relative act. (D-amidase [2]; substrate 40 mM): 1.5 U/mg
NC(=O)c1cccnc1 [Nicotinamide],,,,Activity with respect to Tle-NH2 (D-amidase [2]; substrate 40 mM): 19; Relative act. (D-amidase [2]; substrate 40 mM): 8.5 U/mg
Benzylamide,,,,Activity with respect to Tle-NH2 (D-amidase [2]; substrate 20 mM): 5.2; Relative act. (D-amidase [2]; substrate 20 mM): 2.6 U/mg
CC(C)C[C@H](N)C(N)=O (racemic) [DL-Leu-NH2],,,,"E value (D-amidase [3]; conversion 4%): 470; ee D-Val (D-amidase [3]; [4]): 99.6%; E value (D-amidase [3]; conversion 18%): 130; ee D-Val (D-amidase [3]; conversion 18%, partly purified enzyme after the 1st chromatography step): 98.1%; E value (D-amidase [3]; conversion 33%): 120; ee D-Val (D-amidase [3]; conversion 33%, partly purified enzyme after the 1st chromatography step): 97.3%; E value (D-amidase [3]; conversion 40%): 114; ee D-Val (D-amidase [3]; conversion 40%, partly purified enzyme after the 1st chromatography step): 96.7%; E value (D-amidase [3]; conversion 48%): 53; ee D-Val (D-amidase [3]; conversion 48%, partly purified enzyme after the 1st chromatography step): 90.8%; E value (D-amidase [3]; conversion 51%): 41; ee D-Val (D-amidase [3]; [5]): 86.7%"

# Further lines, with some results ahead:
Rel. activity with respect to D and L (D-amidase [1]),Activity with respect to Tle-NH2 (D-amidase [1]),Specific activity (D-amidase [1]) [U/mg],Molecule,also measured
1.1,66,33,"CC(O)C(N)=O [L-Lac-NH2, lactic acid amide]",
2.7,230,130,CSCCC(N)C(N)=O (racemic) [DL-Met-NH2],
1,1.2,0.59,CC(C)[C@H](N)C(N)=O [L-Val-NH2],
1,59,29,"CC(O)C(N)=O [D-Lac-NH2, lactic acid amide]",
3.0,44,23,C[C@@H](N)C(N)=O [D-Ala-NH2],
1,15,7.7,C[C@H](N)C(N)=O [L-Ala-NH2],
,0.35,0.17,CC[C@H](C)[C@H](N)C(N)=O [L-Ile-NH2],
,150,82,"CSCCC(O)C(N)=O (racemic) [DL-MHA-NH2, 2-hydroxy-4-methylmercaptobutyric acid amid]",
1,86,48,CSCC[C@H](N)C(N)=O [L-Met-NH2],
15,400,220,CC(C)C[C@@H](N)C(N)=O [D-Leu-NH2],
11,13,6.9,CC(C)[C@@H](N)C(N)=O [D-Val-NH2],
1,26,15,CC(C)C[C@H](N)C(N)=O [L-Leu-NH2],
